Entries after “also recorded” stand apart in the source; their conditions may differ.
What was measured:
Type in all cases: cell-based, Pseudomonas aeruginosa
[1] = test system: 45E7 mutant colony biofilm
[2] = test system: 45E7 mutant flow cell biofilm
[3] = test system: 30B1 mutant colony biofilm

With NC[C@H]1O[C@H](O[C@H]2[C@H](O)[C@@H](O[C@H]3O[C@H](CO)[C@@H](O)[C@H](N)[C@H]3O)[C@H](N)C[C@@H]2N)[C@H](N)C[C@@H]1O [Tb, tobramycin] the “resistance of colony biofilm cells” value [1] was “as resistant to the effects of Tb as the wild type”, the “viable cells in colony biofilm” value [1] was “below detection; also recorded: no viable cells were detected” and the “live versus dead cells in Tb-treated biofilm (BacLight)” value [2] was “more dead cells than live ones”. For the same compound, the “drop in viable count in colony biofilm” value [3] was ~10^9 and the “viable cells in colony biofilm” value [3] was “below detection; also recorded: no viable cells detected”.
